Peptide text beside a SMILES is read from it.
How the values were obtained:
Type in all cases: biochemical
[1] = biological target: T1, HDAC2 (Homo sapiens, UniProt Q92769); assay: HDAC2 inhibition, full IC50 measurement (Reaction Biology; fluorogenic p53 peptide RHKK(Ac)AMC); conditions: t1
T1 construct: purchased Reaction Biology Corporation (assay run by the CRO)
Experimental: (§1) The assay was performed using 50 μM fluorogenic peptide from p53 residues 379-382 [RHKK(Ac)AMC] in a base reaction buffer of 50 mM Tris-HCl at pH 8.0, 137 mM NaCl, 2.7 mM KCl, 1 mM MgCl2, and freshly added 1 mg/ml BSA and 1% DMSO. Peptides were first dissolved in DMSO and then added to the reaction mixture with the enzyme using acoustic technique, enough to reach the desired concentration for that assay point. Peptide concentrations were calculated based on mass of lyophilized peptide and its molecular weight. The substrate was then added and incubated for 1 hour at 30 °C in a sealed container. After the incubation, developer was added to stop the reaction and develop color. Kinetic measurements were then performed for 20 min with Envision with 5 min intervals (Ex/Em = 360/460 nm). The endpoint after plateau was taken for IC50 measurement.
(§2) In cases where duplicate measures are used, average data is reported in the main text or Supplementary Tables.

[2] = biological target: T2, HDAC6 (Homo sapiens, UniProt Q9UBN7); assay: HDAC6 inhibition, full IC50 measurement (Reaction Biology; fluorogenic p53 peptide RHKK(Ac)AMC); conditions: t1
T2 construct: purchased Reaction Biology Corporation (assay run by the CRO)
T2 sequence (Q9UBN7 1-1215): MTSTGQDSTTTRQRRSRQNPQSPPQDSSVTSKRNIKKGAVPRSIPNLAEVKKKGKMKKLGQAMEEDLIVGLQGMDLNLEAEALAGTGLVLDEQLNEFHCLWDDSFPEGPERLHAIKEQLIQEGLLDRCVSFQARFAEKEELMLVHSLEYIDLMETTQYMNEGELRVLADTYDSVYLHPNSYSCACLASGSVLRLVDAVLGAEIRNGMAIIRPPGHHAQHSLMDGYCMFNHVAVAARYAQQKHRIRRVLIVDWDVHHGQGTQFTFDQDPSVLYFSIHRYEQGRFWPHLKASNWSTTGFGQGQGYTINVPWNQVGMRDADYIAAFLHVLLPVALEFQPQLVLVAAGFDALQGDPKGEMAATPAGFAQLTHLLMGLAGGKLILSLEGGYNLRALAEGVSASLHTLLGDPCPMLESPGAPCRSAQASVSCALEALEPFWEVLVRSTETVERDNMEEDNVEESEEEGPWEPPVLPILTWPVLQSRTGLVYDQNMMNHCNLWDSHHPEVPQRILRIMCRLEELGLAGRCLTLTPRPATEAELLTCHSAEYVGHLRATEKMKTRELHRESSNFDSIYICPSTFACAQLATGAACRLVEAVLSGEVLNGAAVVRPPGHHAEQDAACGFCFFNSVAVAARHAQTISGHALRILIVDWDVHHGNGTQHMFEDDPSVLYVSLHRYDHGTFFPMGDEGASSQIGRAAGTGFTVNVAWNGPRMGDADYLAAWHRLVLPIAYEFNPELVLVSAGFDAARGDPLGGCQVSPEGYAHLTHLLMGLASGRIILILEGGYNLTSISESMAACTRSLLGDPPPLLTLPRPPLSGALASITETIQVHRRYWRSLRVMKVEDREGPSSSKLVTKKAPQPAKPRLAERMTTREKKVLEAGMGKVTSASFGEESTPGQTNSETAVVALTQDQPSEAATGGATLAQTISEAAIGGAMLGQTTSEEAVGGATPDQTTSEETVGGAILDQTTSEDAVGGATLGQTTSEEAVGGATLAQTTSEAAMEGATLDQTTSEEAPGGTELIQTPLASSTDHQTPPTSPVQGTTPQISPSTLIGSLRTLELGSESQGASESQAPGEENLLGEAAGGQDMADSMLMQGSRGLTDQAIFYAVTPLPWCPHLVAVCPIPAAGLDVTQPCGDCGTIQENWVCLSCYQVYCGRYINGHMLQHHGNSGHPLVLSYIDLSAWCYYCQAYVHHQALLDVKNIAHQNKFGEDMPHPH
Experimental: as §1, §2

[3] = biological target: T3, HDAC1 (Homo sapiens, UniProt Q13547); assay: HDAC1 inhibition, full IC50 measurement (Reaction Biology; fluorogenic p53 peptide RHKK(Ac)AMC); conditions: t1/t2 replicates
T3 construct: purchased Reaction Biology Corporation (assay run by the CRO)
T3 sequence (Q13547 whole entry): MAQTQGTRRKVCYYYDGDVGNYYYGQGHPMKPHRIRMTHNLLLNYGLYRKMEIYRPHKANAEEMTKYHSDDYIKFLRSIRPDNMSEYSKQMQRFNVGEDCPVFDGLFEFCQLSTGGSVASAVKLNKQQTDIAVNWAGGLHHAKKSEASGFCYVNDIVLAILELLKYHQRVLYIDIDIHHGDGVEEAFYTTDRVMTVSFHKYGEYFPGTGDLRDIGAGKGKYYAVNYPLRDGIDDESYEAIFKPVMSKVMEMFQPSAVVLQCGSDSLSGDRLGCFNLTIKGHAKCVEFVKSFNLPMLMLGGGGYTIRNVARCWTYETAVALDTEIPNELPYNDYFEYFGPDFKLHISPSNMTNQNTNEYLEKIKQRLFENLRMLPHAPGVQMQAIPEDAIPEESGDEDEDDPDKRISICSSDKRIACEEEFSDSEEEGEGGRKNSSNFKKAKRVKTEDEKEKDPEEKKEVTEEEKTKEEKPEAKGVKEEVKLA
Experimental: as §1, §2

[4] = biological target: T4, HDAC3 (Homo sapiens, UniProt O15379); assay: HDAC3 inhibition, full IC50 measurement (Reaction Biology; fluorogenic p53 peptide RHKK(Ac)AMC); conditions: t1
T4 construct: purchased Reaction Biology Corporation (assay run by the CRO)
T4 sequence (O15379 whole entry): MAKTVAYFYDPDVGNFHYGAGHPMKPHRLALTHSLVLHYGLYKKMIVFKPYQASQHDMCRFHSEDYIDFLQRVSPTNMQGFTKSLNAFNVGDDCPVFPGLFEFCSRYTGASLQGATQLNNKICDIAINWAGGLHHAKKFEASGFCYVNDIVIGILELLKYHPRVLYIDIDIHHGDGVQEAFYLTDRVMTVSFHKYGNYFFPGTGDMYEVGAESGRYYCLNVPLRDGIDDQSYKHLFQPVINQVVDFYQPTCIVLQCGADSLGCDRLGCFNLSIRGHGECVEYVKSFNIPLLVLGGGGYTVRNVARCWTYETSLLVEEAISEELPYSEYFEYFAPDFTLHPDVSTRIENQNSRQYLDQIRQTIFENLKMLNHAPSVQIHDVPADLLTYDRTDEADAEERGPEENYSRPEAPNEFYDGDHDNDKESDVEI
T4 sequence (Q9Y618 395-489 partner limits assumed): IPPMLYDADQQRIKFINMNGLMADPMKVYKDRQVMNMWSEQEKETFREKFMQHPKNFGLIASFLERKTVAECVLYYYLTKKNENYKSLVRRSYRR
Experimental: as §1, §2

[5] = biological target: T5, HDAC8 (Homo sapiens, UniProt Q9BY41); assay: HDAC8 inhibition, full IC50 measurement (Reaction Biology; fluorogenic p53 peptide RHKK(Ac)AMC); conditions: t1/t2 replicates
T5 construct: purchased Reaction Biology Corporation (assay run by the CRO)
T5 sequence (Q9BY41 1-377): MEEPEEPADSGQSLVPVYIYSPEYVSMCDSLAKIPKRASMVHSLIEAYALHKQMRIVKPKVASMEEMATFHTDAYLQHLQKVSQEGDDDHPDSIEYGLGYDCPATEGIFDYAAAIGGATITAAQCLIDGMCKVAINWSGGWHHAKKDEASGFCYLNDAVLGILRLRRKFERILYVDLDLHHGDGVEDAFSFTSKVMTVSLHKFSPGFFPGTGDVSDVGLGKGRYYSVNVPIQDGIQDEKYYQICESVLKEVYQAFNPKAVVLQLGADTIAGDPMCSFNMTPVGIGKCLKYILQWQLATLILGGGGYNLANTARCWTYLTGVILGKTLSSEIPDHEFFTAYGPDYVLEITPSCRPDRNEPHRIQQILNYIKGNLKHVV
Experimental: as §1, §2

T1 sequence (Q92769 whole entry): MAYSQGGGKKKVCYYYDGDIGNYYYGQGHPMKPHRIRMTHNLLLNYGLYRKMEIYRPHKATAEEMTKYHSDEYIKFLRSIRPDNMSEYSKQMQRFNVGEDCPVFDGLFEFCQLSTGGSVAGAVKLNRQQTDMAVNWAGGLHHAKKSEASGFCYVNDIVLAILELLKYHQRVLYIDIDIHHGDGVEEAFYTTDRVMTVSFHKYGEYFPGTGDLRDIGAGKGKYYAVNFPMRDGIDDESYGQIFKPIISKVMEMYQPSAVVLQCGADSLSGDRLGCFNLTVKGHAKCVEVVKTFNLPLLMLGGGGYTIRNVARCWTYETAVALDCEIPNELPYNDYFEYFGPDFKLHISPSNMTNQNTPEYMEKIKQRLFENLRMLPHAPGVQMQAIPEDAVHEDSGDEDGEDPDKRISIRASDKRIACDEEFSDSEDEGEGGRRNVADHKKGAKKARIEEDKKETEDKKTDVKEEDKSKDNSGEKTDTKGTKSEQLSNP

NCCCC[C@@H]1NC(=O)[C@@H]2C[C@@H](O)CN2C(=O)[C@H](CC(N)=O)NC(=O)[C@H](CCCCCS)NC(=O)CNC(=O)[C@H](Cc2c[nH]c3ccccc23)NC(=O)[C@@H](CCCCN)NC(=O)[C@H](CCC(N)=O)NC1=O [des1.1.2, SHA-Asn-Hpr-Lys-Gln-dLys-Trp-Gly] (HELM PEPTIDE1{G.[O=C([C@H](CCCCCS)N[*:1])[*:2]].N.[Hyp].K.Q.[dK].W}$PEPTIDE1,PEPTIDE1,1:R1-8:R2$$$V2.0)
HDAC2 activity raw data (signal) ([1]; Conc. 1.00E-05 M): 101836
HDAC2 activity raw data (signal) ([1]; Conc. 1.11E-06 M): 502310
HDAC2 activity raw data (signal) ([1]; Conc. 1.23E-07 M): 836305
HDAC2 activity raw data (signal) ([1]; Conc. 1.37E-08 M): 962979
HDAC2 activity raw data (signal) ([1]; Conc. 1.52E-09 M): 1015460
HDAC2 activity raw data (signal) ([1]; Conc. 3.33E-06 M): 281419
HDAC2 activity raw data (signal) ([1]; Conc. 3.70E-07 M): 724069
HDAC2 activity raw data (signal) ([1]; Conc. 4.12E-08 M): 1007771
HDAC2 activity raw data (signal) ([1]; Conc. 4.57E-09 M): 1082856
HDAC2 activity raw data (signal) ([1]; Conc. 5.08E-10 M): 1067045
HDAC6 activity raw data (signal) ([2]; Conc. 1.00E-05 M): 10576
HDAC6 activity raw data (signal) ([2]; Conc. 1.11E-06 M): 35009
HDAC6 activity raw data (signal) ([2]; Conc. 1.23E-07 M): 150676
HDAC6 activity raw data (signal) ([2]; Conc. 1.37E-08 M): 391207
HDAC6 activity raw data (signal) ([2]; Conc. 1.52E-09 M): 551447
HDAC6 activity raw data (signal) ([2]; Conc. 3.33E-06 M): 16992
HDAC6 activity raw data (signal) ([2]; Conc. 3.70E-07 M): 72135
HDAC6 activity raw data (signal) ([2]; Conc. 4.12E-08 M): 256776
HDAC6 activity raw data (signal) ([2]; Conc. 4.57E-09 M): 497632
HDAC6 activity raw data (signal) ([2]; Conc. 5.08E-10 M): 597163
HDAC1 activity raw data (signal) ([3]; peptide conc. 1.00E-05 M): 76959
HDAC1 activity raw data (signal) ([3]; peptide conc. 1.11E-06 M): 410794
HDAC1 activity raw data (signal) ([3]; peptide conc. 1.23E-07 M): 886094
HDAC1 activity raw data (signal) ([3]; peptide conc. 1.37E-08 M): 1048348
HDAC1 activity raw data (signal) ([3]; peptide conc. 1.52E-09 M): 1178275
HDAC1 activity raw data (signal) ([3]; peptide conc. 3.33E-06 M): 193861
HDAC1 activity raw data (signal) ([3]; peptide conc. 3.70E-07 M): 669526
HDAC1 activity raw data (signal) ([3]; peptide conc. 4.12E-08 M): 1039919
HDAC1 activity raw data (signal) ([3]; peptide conc. 4.57E-09 M): 1106752
HDAC1 activity raw data (signal) ([3]; peptide conc. 5.08E-10 M): 1177089
HDAC3 activity raw data (signal) ([4]; Conc. 1.00E-05 M): 22366
HDAC3 activity raw data (signal) ([4]; Conc. 1.11E-06 M): 160146
HDAC3 activity raw data (signal) ([4]; Conc. 1.23E-07 M): 601268
HDAC3 activity raw data (signal) ([4]; Conc. 1.37E-08 M): 1087451
HDAC3 activity raw data (signal) ([4]; Conc. 1.52E-09 M): 1408573
HDAC3 activity raw data (signal) ([4]; Conc. 3.33E-06 M): 60464
HDAC3 activity raw data (signal) ([4]; Conc. 3.70E-07 M): 337153
HDAC3 activity raw data (signal) ([4]; Conc. 4.12E-08 M): 888364
HDAC3 activity raw data (signal) ([4]; Conc. 4.57E-09 M): 1250419
HDAC3 activity raw data (signal) ([4]; Conc. 5.08E-10 M): 1404307
HDAC8 activity raw data (signal) ([5]; peptide conc. 1.00E-05 M): 21213376
HDAC8 activity raw data (signal) ([5]; peptide conc. 1.11E-06 M): 37632401
HDAC8 activity raw data (signal) ([5]; peptide conc. 1.23E-07 M): 42211938
HDAC8 activity raw data (signal) ([5]; peptide conc. 1.37E-08 M): 48061782
HDAC8 activity raw data (signal) ([5]; peptide conc. 1.52E-09 M): 52470288
HDAC8 activity raw data (signal) ([5]; peptide conc. 3.33E-06 M): 31972513
HDAC8 activity raw data (signal) ([5]; peptide conc. 3.70E-07 M): 43240252
HDAC8 activity raw data (signal) ([5]; peptide conc. 4.12E-08 M): 47347914
HDAC8 activity raw data (signal) ([5]; peptide conc. 4.57E-09 M): 49471078
HDAC8 activity raw data (signal) ([5]; peptide conc. 5.08E-10 M): 54514203

Source: PMC8185074, “Anchor extension: a structure-guided approach to design cyclic peptides targeting enzyme active sites” (Nature Communications, 2021)
